In data set [1] the test system is Jcl:SD strain male rats. In words: Study of pungency (eye wiping test). It is filed as in vivo. To be noted: a drop into the eye of rats, counted for 3 minutes, average ± S.E.M. The method, then:
Experiment 2: Study of Pungency (Eye Wiping Test)
The pungency of the test compounds were studied referring to the method of Jancso et al. [Acta Physiol. Acad. Sci. Hung., 19, 113–131 (1961)] and the method of Szallasi et al. [Brit. J. Pharmacol., 119, 283–290 (1996)]. A test compound was dissolved in a physiological saline solution containing 10% ethanol and 10% Tween 80 into various concentrations (μg/ml), and a drop of the solution thereof was added dropwise into the eye of Jcl:SD strain male rats (5 to 25 […] per group, body weight; 220 to 280 g). Then, the number of the protective wiping movements with forefoot was counted for 3 minutes, and was considered as an index for pungency. The test results are expressed as average value±S.E.M., and the statistical significant differences between each test compound-treated group and the control group were analyzed using non-parametric Dunnett's multiple range test, and p<0.05 was considered as significant difference.

Data set [2] has as its system male Std:ddY mice. Briefly: Phenyl-1,4-benzoquinone-induced writhing test. It is filed as in vivo. To be noted: for ED50 / ED50 (mg/kg po) / Inhibitory percentage (%): writhing inhibition; for ED50 / ED50 (mg/kg po): logit analysis; for inhibition in vivo at 1 mg/kg / inhibition in vivo at 10 mg/kg: 1 h; for inhibition in vivo at 1 mg/kg: subcutaneously administered at a dose of 1 mg/kg; for inhibition in vivo at 1 mg/kg / inhibition in vivo at 10 mg/kg / Inhibitory percentage (%): 60 minutes before PBQ; for inhibition in vivo at 10 mg/kg / Inhibitory percentage (%): orally administered at a dose of 10 mg/kg. In outline:
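Compounds were given orally suspended in 0.5% tragacanth; subcutaneous controls got saline with 10% Tween 80 and 10% ethanol. Writhing counts after phenyl-1,4-benzoquinone were compared with vehicle controls as % inhibition [(A−B)/A]×100. ED50 (mg/kg) was derived by logit analysis.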

[3] abbreviates: Mus musculus, po, oral administration, read-out: ED50 (mg/kg po).
The mark [4] stands for this setting: Mus musculus, sc, read-out: Inhibitory percentage (%).
The mark [5] stands for this setting: Mus musculus, sc, subcutaneous administration, read-out: ED50 (mg/kg sc).
[6] abbreviates: Mus musculus, po, read-out: Inhibitory percentage (%).

Like-named read-outs stand apart in the source and are kept apart here. Some results are limits rather than exact numbers.

In the case of `COc1cc(CNC(=O)CCCC/C=C/C(C)C)ccc1O` [Capsaicin, trans-8-methyl-N-vanillyl-6-nonenamide, reference compound], the “Number of wiping movements” value is recorded as 6.0 ± 0.8 in data set [1] (concentration 1 μg/ml); 7.8 ± 1.4 in data set [1] (concentration 2 μg/ml); 11.2 ± 3.0 in data set [1] (concentration 5 μg/ml); “significantly increased” in data set [1] (concentration 5 μg/ml, listed as capsaicin); 26.4 ± 6.0 in data set [1] (concentration 10 μg/ml); 38.0 ± 4.8 in data set [1] (concentration 20 μg/ml). In addition, the ED50 in data set [2] (setting [3]) is greater than 30 mg/kg; in data set [2] (setting [5]), 1.15 mg/kg. The inhibition in vivo at 30 mg/kg in data set [2] (Mus musculus, po, orally administered at a dose of 30 mg/kg, read-out: Inhibitory percentage (%)) stood at 20.6%. The inhibition in vivo at 1 mg/kg in data set [2] (setting [4]) was 46.6%.

On to `COc1cc(CC(=O)Nc2cccc(-c3ccc(Cl)cc3)c2)ccc1OCCN` [Example 67, 4-(2-aminoethoxy)-N-[3-(4-chlorophenyl)phenyl]-3-methoxyphenylacetamide], for which the “Number of wiping movements” value in data set [1] (concentration 100 μg/ml) is reported as 3.8 ± 1.3; in data set [1] (concentration 500 μg/ml), 13.4 ± 2.8. The inhibition in vivo at 10 mg/kg in data set [2] (setting [6]) is 90.2%.

For the compound `COc1cc(CC(=O)Nc2cccc(-c3cccc(F)c3)c2)ccc1OCCN` [Example 66, 4-(2-aminoethoxy)-N-[3-(3-fluorophenyl)phenyl]-3-methoxyphenylacetamide], the “Number of wiping movements” value is 5.6 ± 2.4 in data set [1] (concentration 100 μg/ml); “no significant increase” in data set [1] (concentration 500 μg/ml); 3.6 ± 1.6 in data set [1] (concentration 500 μg/ml, listed as Ex. 66). Also, the inhibition in vivo at 10 mg/kg in data set [2] (setting [6]) came to 100%.

Regarding `COc1cc(CC(=O)Nc2cccc(C3CCCCC3)c2)ccc1OCCN` [Example 61, 4-(2-aminoethoxy)-N-(3-cyclohexylphenyl)-3-methoxyphenylacetamide], the results for the “Number of wiping movements” value in data set [1] (concentration 20 μg/ml), in data set [1] (concentration 100 μg/ml) and in data set [1] (concentration 500 μg/ml) were 2.0 ± 0.8, 7.4 ± 2.1 and 15.6 ± 4.5, respectively. For the same compound, the inhibition in vivo at 10 mg/kg in data set [2] (setting [6]) came out at 89%. Moreover, the ED50 in data set [2] (setting [3]) was found to be 3 mg/kg; in data set [2] (setting [5]), 0.13 mg/kg. For the same compound, the inhibition in vivo at 1 mg/kg in data set [2] (setting [4]) came out at 72.8%.

For the compound `COc1cc(CC(=O)Nc2cccc(-c3cccc(Oc4ccccc4)c3)c2)ccc1OCCN` [Example 186, 4-(2-aminoethoxy)-3-methoxy-N-[3-(3-phenoxyphenyl)phenyl]-phenylacetamide], the figures for the “Number of wiping movements” value in data set [1] (concentration 100 μg/ml) and in data set [1] (concentration 500 μg/ml) were 4.0 ± 1.1 and 12.2 ± 2.0, respectively. Further, the inhibition in vivo at 10 mg/kg in data set [2] (setting [6]) came out at 84.3%. Further, the ED50 in data set [2] (setting [3]) was 1.83 mg/kg.

Regarding `COc1cc(CC(=O)Nc2cccc(-c3ccc(F)cc3)c2)ccc1OCCN` [Example 124, 4-(2-aminoethoxy)-N-[3-(4-fluorophenyl)phenyl]-3-methoxyphenylacetamide], the inhibition in vivo at 10 mg/kg in data set [2] (setting [6]) is 100%. Also, the ED50 in data set [2] (setting [3]) is no more than 1 mg/kg. Moreover, the “ED50 (mg/kg po)” value in data set [2] (oral administration, listed as Ex. 124) was 0.71 mg/kg.

Regarding `COc1cc(CC(=O)Nc2cc(-c3ccccc3)ccc2C)ccc1OCCN` [Example 172, 4-(2-aminoethoxy)-N-[(2-methyl-5-phenyl)phenyl]-3-methoxyphenylacetamide], the “ED50 (mg/kg po)” value in data set [2] (oral administration) is 4.42 mg/kg. For the same compound, the “Inhibitory percentage (%)” value in data set [2] was 75.9%.

In the case of `COc1cc(CC(=O)Nc2cccc(C3=CCC(C(C)(C)C)CC3)c2)ccc1O` (stereo not drawn) [Example 80, N-[3-(4-tert-butylcyclohexen-1-yl)phenyl]-4-hydroxy-3-methoxyphenylacetamide], the inhibition in vivo at 1 mg/kg in data set [2] (setting [4]) worked out at 100%. Also, the ED50 in data set [2] (setting [5]) is 0.37 mg/kg.

Take `COc1cc(CC(=O)Nc2ccccc2Cc2ccccc2)ccc1O` [Ex. 97, N-(2-benzylphenyl)-4-hydroxy-3-methoxyphenylacetamide]: in data set [2] (setting [4]), the inhibition in vivo at 1 mg/kg came out at 54.9%.

With `COc1cc(CC(=O)Nc2cccc(N3CCCC(C4CCCCC4)C3)c2)ccc1OCCN` (stereo not drawn) [Example 199, 4-(2-aminoethoxy)-N-[3-(3-cyclohexylpiperidin-1-yl)phenyl]-3-methoxyphenylacetamide], the inhibition in vivo at 10 mg/kg in data set [2] (setting [6]) worked out at 71.6%.

With `COc1cc(CC(=O)Nc2cccc(C3CCC(C(C)(C)C)CC3)c2)ccc1OC(=O)C(C)(C)C` (stereo not drawn) [Example 71, 4-tert-butylcarbonyloxy-N-[3-(4-tert-butylcyclohexan-1-yl)-phenyl]-3-methoxyphenylacetamide], the inhibition in vivo at 1 mg/kg in data set [2] (setting [4]) was determined as 94.2%. The ED50 in data set [2] (setting [5]) stood at 0.16 mg/kg.

In the case of `COc1cc(CC(=O)Nc2cccc(-c3ccsc3)c2)ccc1OCCN` [Example 161, 4-(2-aminoethoxy)-3-methoxy-N-[3-(thiophen-3-yl)phenyl]-phenylacetamide], the inhibition in vivo at 10 mg/kg in data set [2] (setting [6]) was determined as 79.4%. The ED50 in data set [2] (setting [3]) was found to be 2.79 mg/kg.

As to `COc1cc(CC(=O)Nc2cccc(-c3cccc(C4CCCCC4)c3)c2)ccc1OCCN` [Example 183, 4-(2-aminoethoxy)-N-[3-(3-cyclohexylphenyl)phenyl]-3-methoxyphenylacetamide], the inhibition in vivo at 10 mg/kg in data set [2] (setting [6]) is 83.5%. The ED50 in data set [2] (setting [3]) was 3.09 mg/kg.

With `COc1cc(CC(=O)Nc2cccc(CC3CCCCC3)c2)ccc1O` [Example 5, N-[3-(cyclohexylmethyl)phenyl]-4-hydroxy-3-methoxyphenylacetamide], the inhibition in vivo at 1 mg/kg in data set [2] (setting [4]) was determined as 83.5%. Besides, in data set [2] (setting [5]), the ED50 is 0.57 mg/kg.

As for `COc1cc(CC(=O)Nc2cccc(-c3cccc(C(C)(C)C)c3)c2)ccc1OCCN` [Example 169, 4-(2-aminoethoxy)-N-[3-(3-tert-butylphenyl)phenyl]-3-methoxyphenylacetamide], the inhibition in vivo at 10 mg/kg in data set [2] (setting [6]) came out at 100%. The ED50 in data set [2] (setting [3]) was found to be 1.29 mg/kg.

Consider `COc1cc(CC(=O)Nc2cccc([C@H]3CC[C@@H](C(C)(C)C)CC3)c2)ccc1OCCN` [Example 194, 4-(2-aminoethoxy)-N-[3-[(cis)-4-tert-butylcyclohexan-1-yl]-phenyl]-3-methoxyphenylacetamide], for which, in data set [2] (setting [6]), the inhibition in vivo at 10 mg/kg was found to be 96.2%. For the same compound, the ED50 in data set [2] (setting [3]) came to 1.05 mg/kg.

Regarding `COc1cc(CC(=O)Nc2cccc(N3CCCCC3)c2)ccc1OCCN` [Example 197, 4-(2-aminoethoxy)-3-methoxy-N-[3-(piperidin-1-yl)phenyl]-phenylacetamide], the inhibition in vivo at 10 mg/kg in data set [2] (setting [6]) amounted to 89.1%. In addition, the ED50 in data set [2] (setting [3]) amounted to 5.26 mg/kg.

Turning to `COc1cc(CC(=O)Nc2cc(-c3ccccc3)cc(C(F)(F)F)c2)ccc1OCCN` [Example 178, 4-(2-aminoethoxy)-3-methoxy-N-[(3-trifluoromethyl-5-phenyl)-phenyl]phenylacetamide], in data set [2] (oral administration), the “ED50 (mg/kg po)” value was 1.65 mg/kg. Further, the “Inhibitory percentage (%)” value in data set [2] is on record as 100%.

Consider `COc1cc(CC(=O)Nc2cccc(-c3cccc(OC(F)(F)F)c3)c2)ccc1OCCN` [Example 150, 4-(2-aminoethoxy)-3-methoxy-N-[3-(3-trifluoromethoxyphenyl)-phenyl]phenylacetamide], for which the inhibition in vivo at 10 mg/kg in data set [2] (setting [6]) worked out at 100%. The ED50 in data set [2] (setting [3]) is 1.32 mg/kg.

In the case of `COC(=O)c1cccc(-c2cccc(NC(=O)Cc3ccc(OCCN)c(OC)c3)c2)c1` [Example 146, 4-(2-aminoethoxy)-N-[3-(3-methoxycarbonylphenyl)phenyl]-3-methoxyphenylacetamide], the inhibition in vivo at 10 mg/kg in data set [2] (setting [6]) was found to be 76.9%. The ED50 in data set [2] (setting [3]) turned out to be 2.68 mg/kg.

Source of the values: patent US7084176B2, “N-arylphenylacetamide derivatives and medicinal compositions containing the same” (Dainippon Pharmaceutical Co., Ltd., priority 2001, dated 2006).
